Test results taken from PMC10599993, “The PTPN2/PTPN1 inhibitor ABBV-CLS-484 unleashes potent anti-tumour immunity” (Nature, 2023).
pIC50: −log10 of the molar value.

Key:
Test in all cases: biochemical
Parameters in all cases: Kinase selectivity panel, IC50 of AC484 (Supplementary Table 1)
[1] = target: T1, Aurora 2 (Homo sapiens, UniProt O14965)
T1 construct: gene AURKA

[2] = target: Blk (Homo sapiens, UniProt P51451)
[3] = target: CAMK2A (Homo sapiens, UniProt Q9UQM7)
[4] = target: CSK (Homo sapiens, UniProt P41240)
Sequence of CSK (P41240 whole entry): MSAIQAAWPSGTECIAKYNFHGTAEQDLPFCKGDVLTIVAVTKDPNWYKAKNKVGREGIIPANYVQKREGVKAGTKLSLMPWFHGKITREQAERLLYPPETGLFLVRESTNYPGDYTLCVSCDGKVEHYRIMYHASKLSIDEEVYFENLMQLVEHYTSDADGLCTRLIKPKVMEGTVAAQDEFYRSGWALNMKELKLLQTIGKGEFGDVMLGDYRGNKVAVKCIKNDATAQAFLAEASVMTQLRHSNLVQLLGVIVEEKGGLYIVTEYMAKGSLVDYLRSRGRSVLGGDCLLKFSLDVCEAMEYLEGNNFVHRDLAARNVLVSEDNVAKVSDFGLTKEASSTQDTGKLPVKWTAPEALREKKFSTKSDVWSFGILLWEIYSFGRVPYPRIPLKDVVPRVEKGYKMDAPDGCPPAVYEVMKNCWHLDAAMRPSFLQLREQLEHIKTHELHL

[5] = target: DDR1 (Homo sapiens, UniProt Q08345)
[6] = target: Dyrk1A (Homo sapiens, UniProt Q13627)
[7] = target: ErbB4 (Homo sapiens, UniProt Q15303)
[8] = target: T2, FAK (Homo sapiens, UniProt Q05397)
T2 construct: gene PTK2

[9] = target: FGR (Homo sapiens, UniProt P09769)
[10] = target: IGF1R (Homo sapiens, UniProt P08069)
Sequence of IGF1R (P08069 whole entry): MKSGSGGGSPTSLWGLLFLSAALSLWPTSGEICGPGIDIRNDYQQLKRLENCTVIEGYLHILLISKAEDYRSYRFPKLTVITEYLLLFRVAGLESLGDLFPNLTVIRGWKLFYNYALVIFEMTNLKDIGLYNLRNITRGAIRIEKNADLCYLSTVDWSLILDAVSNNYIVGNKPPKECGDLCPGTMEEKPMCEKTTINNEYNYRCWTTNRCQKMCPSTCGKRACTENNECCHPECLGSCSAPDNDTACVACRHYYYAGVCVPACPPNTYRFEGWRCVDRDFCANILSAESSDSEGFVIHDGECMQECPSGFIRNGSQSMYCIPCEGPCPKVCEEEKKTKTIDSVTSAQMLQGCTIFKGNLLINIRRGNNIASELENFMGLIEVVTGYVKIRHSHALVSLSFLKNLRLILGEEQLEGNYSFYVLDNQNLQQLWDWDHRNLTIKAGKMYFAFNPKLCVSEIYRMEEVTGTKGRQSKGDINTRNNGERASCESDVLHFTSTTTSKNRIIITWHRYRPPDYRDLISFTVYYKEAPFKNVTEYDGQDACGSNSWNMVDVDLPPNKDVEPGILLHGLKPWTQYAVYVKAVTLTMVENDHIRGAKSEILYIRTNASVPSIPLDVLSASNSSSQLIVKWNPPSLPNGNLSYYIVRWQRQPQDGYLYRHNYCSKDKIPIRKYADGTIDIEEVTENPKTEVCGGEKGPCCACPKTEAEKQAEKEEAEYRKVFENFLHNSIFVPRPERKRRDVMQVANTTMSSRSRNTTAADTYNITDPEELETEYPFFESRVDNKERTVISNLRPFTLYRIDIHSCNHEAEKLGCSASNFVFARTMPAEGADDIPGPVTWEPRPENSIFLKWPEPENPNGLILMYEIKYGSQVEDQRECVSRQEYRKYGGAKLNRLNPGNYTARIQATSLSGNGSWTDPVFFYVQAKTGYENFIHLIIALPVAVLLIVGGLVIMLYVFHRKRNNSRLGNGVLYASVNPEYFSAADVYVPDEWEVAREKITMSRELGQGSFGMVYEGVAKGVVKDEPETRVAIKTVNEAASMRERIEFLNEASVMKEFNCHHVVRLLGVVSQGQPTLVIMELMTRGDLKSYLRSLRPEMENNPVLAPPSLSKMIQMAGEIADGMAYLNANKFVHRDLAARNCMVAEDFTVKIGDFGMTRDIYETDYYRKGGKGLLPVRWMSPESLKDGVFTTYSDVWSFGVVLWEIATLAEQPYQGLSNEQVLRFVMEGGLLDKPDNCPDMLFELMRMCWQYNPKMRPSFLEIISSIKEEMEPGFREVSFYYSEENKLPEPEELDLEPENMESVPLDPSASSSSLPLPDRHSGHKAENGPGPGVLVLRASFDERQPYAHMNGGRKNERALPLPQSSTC

[11] = target: T3, IKKE (Homo sapiens, UniProt Q14164)
T3 construct: gene IKBKE

[12] = target: IRAK4 (Homo sapiens, UniProt Q9NWZ3)
[13] = target: MAP2K3 (Homo sapiens, UniProt P46734)
[14] = target: MAP3K10 (Homo sapiens, UniProt Q02779)
[15] = target: MAP4K3 (Homo sapiens, UniProt Q8IVH8)
[16] = target: T4, MST1 (Homo sapiens, UniProt Q13043)
T4 construct: gene STK4

[17] = target: PDGFRB (Homo sapiens, UniProt P09619)
[18] = target: T5, PKC alpha-UBI (Homo sapiens, UniProt P17252)
T5 construct: gene PRKCA

[19] = target: T6, PKCepsilon (Homo sapiens, UniProt Q02156)
T6 construct: gene PRKCE
T6 sequence (Q02156 whole entry): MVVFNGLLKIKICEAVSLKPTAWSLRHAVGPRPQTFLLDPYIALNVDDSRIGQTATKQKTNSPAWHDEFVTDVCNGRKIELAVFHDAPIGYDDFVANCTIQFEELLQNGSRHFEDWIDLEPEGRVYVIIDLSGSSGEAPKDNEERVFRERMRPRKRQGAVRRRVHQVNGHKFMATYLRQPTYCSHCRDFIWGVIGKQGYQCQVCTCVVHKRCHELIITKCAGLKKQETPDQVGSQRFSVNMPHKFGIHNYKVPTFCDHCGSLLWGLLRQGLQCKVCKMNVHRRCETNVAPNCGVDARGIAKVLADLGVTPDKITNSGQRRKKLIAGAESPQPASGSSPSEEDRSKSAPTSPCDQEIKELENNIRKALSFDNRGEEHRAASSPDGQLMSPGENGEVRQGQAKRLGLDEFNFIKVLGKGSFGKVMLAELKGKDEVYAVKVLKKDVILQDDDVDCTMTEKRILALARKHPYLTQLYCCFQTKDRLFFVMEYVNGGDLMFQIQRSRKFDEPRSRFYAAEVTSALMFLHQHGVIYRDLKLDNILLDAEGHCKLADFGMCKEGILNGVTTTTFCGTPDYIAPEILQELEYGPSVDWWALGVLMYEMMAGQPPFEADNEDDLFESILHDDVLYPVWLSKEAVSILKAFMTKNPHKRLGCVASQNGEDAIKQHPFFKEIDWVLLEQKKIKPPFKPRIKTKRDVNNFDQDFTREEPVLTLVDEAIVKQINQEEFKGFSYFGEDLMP

[20] = target: T7, PKCzeta (Homo sapiens, UniProt Q05513)
T7 construct: gene PRKCZ

[21] = target: T8, PKG1A (Homo sapiens, UniProt Q13976)
T8 construct: gene PRKG1; isoform 1 alpha

[22] = target: Plk3 (Homo sapiens, UniProt Q9H4B4)
Sequence of Plk3 (Q9H4B4 whole entry): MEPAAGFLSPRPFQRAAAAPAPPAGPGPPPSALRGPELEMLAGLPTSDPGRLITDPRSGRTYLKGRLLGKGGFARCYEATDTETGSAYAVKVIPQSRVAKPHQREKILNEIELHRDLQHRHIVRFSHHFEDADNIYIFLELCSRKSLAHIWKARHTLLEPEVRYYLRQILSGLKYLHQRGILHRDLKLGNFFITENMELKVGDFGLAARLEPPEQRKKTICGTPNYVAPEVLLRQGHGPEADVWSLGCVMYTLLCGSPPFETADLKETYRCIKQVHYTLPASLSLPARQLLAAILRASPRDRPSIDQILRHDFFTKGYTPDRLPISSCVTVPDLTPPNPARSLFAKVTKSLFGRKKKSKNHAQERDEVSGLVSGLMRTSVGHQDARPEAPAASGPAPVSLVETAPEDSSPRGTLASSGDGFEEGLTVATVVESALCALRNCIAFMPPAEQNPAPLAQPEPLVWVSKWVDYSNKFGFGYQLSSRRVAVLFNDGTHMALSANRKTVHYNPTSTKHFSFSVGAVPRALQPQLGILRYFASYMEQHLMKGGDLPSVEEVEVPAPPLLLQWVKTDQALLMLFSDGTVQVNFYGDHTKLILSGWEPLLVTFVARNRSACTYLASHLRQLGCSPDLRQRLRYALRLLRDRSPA

[23] = target: Rock1 (Homo sapiens, UniProt Q13464)
Sequence of Rock1 (Q13464 whole entry): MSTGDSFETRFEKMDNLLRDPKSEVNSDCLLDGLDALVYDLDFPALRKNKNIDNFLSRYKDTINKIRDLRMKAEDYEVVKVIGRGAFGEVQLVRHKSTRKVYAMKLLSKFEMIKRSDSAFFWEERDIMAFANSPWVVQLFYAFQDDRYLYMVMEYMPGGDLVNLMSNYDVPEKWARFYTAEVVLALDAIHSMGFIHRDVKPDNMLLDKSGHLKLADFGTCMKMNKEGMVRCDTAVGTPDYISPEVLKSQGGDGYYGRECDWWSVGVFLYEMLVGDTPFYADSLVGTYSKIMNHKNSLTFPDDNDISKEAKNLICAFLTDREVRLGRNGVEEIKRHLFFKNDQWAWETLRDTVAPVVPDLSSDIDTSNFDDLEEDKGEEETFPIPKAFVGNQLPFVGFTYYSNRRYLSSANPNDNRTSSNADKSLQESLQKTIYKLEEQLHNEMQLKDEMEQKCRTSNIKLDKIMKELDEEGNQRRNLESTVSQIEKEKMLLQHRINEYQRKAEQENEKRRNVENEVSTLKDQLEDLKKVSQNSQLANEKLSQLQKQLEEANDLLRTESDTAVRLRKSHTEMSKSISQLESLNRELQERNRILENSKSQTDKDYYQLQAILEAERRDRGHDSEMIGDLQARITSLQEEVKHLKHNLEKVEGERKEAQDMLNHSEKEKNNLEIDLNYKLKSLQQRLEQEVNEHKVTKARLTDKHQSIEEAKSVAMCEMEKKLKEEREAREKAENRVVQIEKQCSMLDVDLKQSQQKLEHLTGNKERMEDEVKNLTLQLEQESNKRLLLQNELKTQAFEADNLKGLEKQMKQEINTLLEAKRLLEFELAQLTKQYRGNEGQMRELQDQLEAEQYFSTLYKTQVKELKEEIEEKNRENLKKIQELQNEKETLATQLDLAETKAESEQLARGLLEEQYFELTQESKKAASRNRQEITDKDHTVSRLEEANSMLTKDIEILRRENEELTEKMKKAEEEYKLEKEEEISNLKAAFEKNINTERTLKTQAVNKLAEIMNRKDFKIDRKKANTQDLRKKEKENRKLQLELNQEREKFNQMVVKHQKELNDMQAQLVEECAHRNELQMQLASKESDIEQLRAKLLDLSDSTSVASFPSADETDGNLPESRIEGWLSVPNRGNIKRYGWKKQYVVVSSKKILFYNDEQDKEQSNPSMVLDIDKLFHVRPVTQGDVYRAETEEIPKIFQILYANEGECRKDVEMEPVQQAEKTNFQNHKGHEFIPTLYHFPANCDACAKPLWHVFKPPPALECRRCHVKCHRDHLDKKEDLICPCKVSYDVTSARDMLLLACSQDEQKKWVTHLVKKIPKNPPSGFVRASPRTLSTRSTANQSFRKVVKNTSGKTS

[24] = target: T9, Rsk2 (Homo sapiens, UniProt P51812)
T9 construct: gene RPS6KA3

[25] = target: SGK1 (Homo sapiens, UniProt O00141)
[26] = target: STK16 (Homo sapiens, UniProt O75716)
[27] = target: TAOK2 (Homo sapiens, UniProt Q9UL54)
[28] = target: TBK1 (Homo sapiens, UniProt Q9UHD2)
[29] = target: TEC (Homo sapiens, UniProt P42680)

Measured: pIC50

Sequence of Blk (P51451 whole entry): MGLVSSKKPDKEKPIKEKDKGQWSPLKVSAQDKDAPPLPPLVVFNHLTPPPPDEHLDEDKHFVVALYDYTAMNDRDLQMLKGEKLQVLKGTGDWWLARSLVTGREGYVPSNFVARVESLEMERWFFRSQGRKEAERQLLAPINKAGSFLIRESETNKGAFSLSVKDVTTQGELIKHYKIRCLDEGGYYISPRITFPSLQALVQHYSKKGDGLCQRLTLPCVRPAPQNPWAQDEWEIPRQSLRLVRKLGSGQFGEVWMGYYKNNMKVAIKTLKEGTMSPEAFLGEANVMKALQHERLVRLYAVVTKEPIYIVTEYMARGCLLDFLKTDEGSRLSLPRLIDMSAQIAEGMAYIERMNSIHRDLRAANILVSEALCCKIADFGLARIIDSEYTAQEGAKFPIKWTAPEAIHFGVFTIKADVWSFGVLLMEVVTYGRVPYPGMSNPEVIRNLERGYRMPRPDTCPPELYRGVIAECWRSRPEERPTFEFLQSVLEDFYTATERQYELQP

CC(C)CCN[C@@H]1CCc2cc(O)c(N3CC(=O)NS3(=O)=O)c(F)c2C1 [AC484, ABBV-CLS-484]
< 5.00: all assays above
